Measurements published in ChEMBL document CHEMBL1131950, “Reversal of P-glycoprotein mediated multidrug resistance by novel anthranilamide derivatives” (Bioorg Med Chem Lett, 1999).

Each molecule was assayed on EMT6 (assay: Reversal effect on the accumulation of [3H]- daunorubicin in mouse mammary carcinoma cell line EMT6/AR 1.0). Details: not given.
Format: functional, cell-based

IC50 [nM] | SMILES
38 | COc1cc2c(cc1OC)CN(CCc1ccc(NC(=O)c3cc(OC)c(OC)cc3NC(=O)c3cnc4ccccc4c3)cc1)CC2 [TARIQUIDAR]

Same assay, conditions: read-out: IC50

SMILES | IC50 [nM]
COc1cc2c(cc1OC)CN(CCNC(=O)c1ccccc1NC(=O)c1ccc(C(C)C)cc1)CC2 | 1100
COc1cc2c(cc1OC)CN(CCNC(=O)c1ccccc1NC(=O)c1ccc(N(C)C)cc1)CC2 | 2400
COc1ccc(CCn2c(-c3ccc(N(C)C)cc3)nc3ccccc3c2=O)cc1OC | 5000
COc1cc2c(cc1OC)CN(CCNC(=O)c1ccccc1NC(=O)c1ccccc1)CC2 | 6800
COc1cc2c(cc1OC)CN(CCc1ccc(NC(=O)c3ccccc3Oc3ccccc3)cc1)CC2 | 2700
COc1cc2c(cc1OC)CN(CCc1ccc(NC(=O)c3ccccc3NC(=O)c3ccccn3)cc1)CC2 | 680
COc1cc2c(cc1OC)CN(CCc1ccc(NC(=O)c3ccccc3NC(=O)c3ccoc3)cc1)CC2 | 920
COc1cc2c(cc1OC)CN(CCc1ccc(NC(=O)c3ccccc3NC(=O)c3ccc4ccccc4n3)cc1)CC2 | 790
COc1cc2c(cc1OC)CN(CCc1ccc(NC(=O)c3ccccc3Sc3ccccc3)cc1)CC2 | 2300
COc1cc2c(cc1OC)CN(CCc1ccc(NC(=O)c3ccccc3-c3ccccc3)cc1)CC2 | 1700
COc1cc2c(cc1OC)CN(CCc1ccc(NC(=O)c3ccccc3NC(=O)c3ccc(C(C)C)cc3)cc1)CC2 | 850
COc1cc2c(cc1OC)CN(CCc1ccc(NC(=O)c3ccccc3NC(=O)c3cccnc3)cc1)CC2 | 880
COc1cc2c(cc1OC)CN(CCc1ccc(NC(=O)c3ccccc3NC(=O)c3cc4ccccc4cn3)cc1)CC2 | 4900
COc1cc2c(cc1OC)CN(CCc1ccc(NC(=O)c3ccccc3NC(=O)c3ccsc3)cc1)CC2 | 730
COc1cc2c(cc1OC)CN(CCc1ccc(NC(=O)c3ccccc3NC(=O)c3ccco3)cc1)CC2 | 3300
COc1cc2c(cc1OC)CN(CCc1ccc(NC(=O)c3ccccc3C(=O)c3ccccc3)cc1)CC2 | 1100
COc1cc2c(cc1OC)CN(CCNC(=O)c1ccccc1NC(=O)c1ccc(C3CCCCC3)cc1)CC2 | 1600

Next, values leading:

IC50 [nM] | SMILES
141 | COc1cc2c(cc1OC)CN(CCc1ccc(NC(=O)c3ccc(Cl)cc3NC(=O)c3cnc4ccccc4c3)cc1)CC2
220 | COc1cc2c(cc1OC)CN(CCc1ccc(NC(=O)c3cccc(/C=c4\[nH]c(=O)/c(=C/c5ccccc5)n(C)c4=O)c3)cc1)CC2
220 | COc1cc2c(cc1OC)CN(CCc1ccc(NC(=O)c3cc(C)ccc3NC(=O)c3cnc4ccccc4c3)cc1)CC2
293 | COc1cc2c(cc1OC)CN(CCc1ccc(NC(=O)c3cc(N(C)C)ccc3NC(=O)c3cnc4ccccc4c3)cc1)CC2
67 | COc1cc2c(cc1OC)CN(CCc1ccc(NC(=O)c3ccccc3NC(=O)c3cnc(C)cn3)cc1)CC2
87 | COc1cc2c(cc1OC)CN(CCc1ccc(NC(=O)c3ccccc3NC(=O)c3cnc4ccccc4c3)cc1)CC2
67 | COc1cc2c(cc1OC)CN(CCc1ccc(NC(=O)c3ccccc3NC(=O)c3ccc(C)nc3)cc1)CC2
149 | COc1cc2c(cc1OC)CN(CCc1ccc(NC(=O)c3cc(Cl)ccc3NC(=O)c3cnc4ccccc4c3)cc1)CC2
92 | COc1cc2c(cc1OC)CN(CCc1ccc(NC(=O)c3ccccc3NC(=O)c3cnc4ccccc4n3)cc1)CC2
204 | COc1cc2c(cc1OC)CN(CCc1ccc(NC(=O)c3ccccc3NC(=O)c3cnccn3)cc1)CC2
60 | COc1cc2c(cc1OC)CN(CCc1ccc(NC(=O)c3cc(F)ccc3NC(=O)c3cnc4ccccc4c3)cc1)CC2
38 | COc1cc2c(cc1OC)CN(CCc1ccc(NC(=O)c3ccc(F)cc3NC(=O)c3cnc4ccccc4c3)cc1)CC2
250 | COc1cc2c(cc1OC)CN(CCc1ccc(NC(=O)c3ccccc3NC(=O)c3ccccc3)cc1)CC2
45 | COc1cc2c(cc1OC)CN(CCc1ccc(NC(=O)c3ccc([N+](=O)[O-])cc3NC(=O)c3cnc4ccccc4c3)cc1)CC2

These molecules were tested on MDR (assay: Potency tested against multidrug resistance (MDR) cell lines expressing P-gp (P-glycoprotein)). Details: not given.
Format: functional, cell-based

EC50 [nM] | SMILES
16.3 | COc1cc2c(cc1OC)CN(CCc1ccc(NC(=O)c3cc(OC)c(OC)cc3NC(=O)c3cnc4ccccc4c3)cc1)CC2 [TARIQUIDAR]
30 | COc1cc2c(cc1OC)CN(CCc1ccc(NC(=O)c3ccccc3NC(=O)c3cnc4ccccc4c3)cc1)CC2
19 | COc1cc2c(cc1OC)CN(CCc1ccc(NC(=O)c3ccccc3NC(=O)c3cnc4ccccc4n3)cc1)CC2
27 | COc1cc2c(cc1OC)CN(CCc1ccc(NC(=O)c3cc(F)ccc3NC(=O)c3cnc4ccccc4c3)cc1)CC2
